According to patent EP0167459B1, “2-Amino oxazolines and process for their preparation” (priority 1984, dated 1986):

Experiments:
NAd = NAd (Homo sapiens, UniProt P23975); assay: Inhibition of neurotransmitter uptake in vitro, noradrenaline; format: cell-based; conditions: NAd = Noradrénaline; for IC50: read-out: UPTAKE NEUROTRANSMETTEUR IN VITRO IC 50 M NAd
5-HT = 5-HT (Homo sapiens, UniProt P31645); assay: Inhibition of neurotransmitter uptake in vitro, 5-HT; format: cell-based; conditions: for IC50: 5-HT = (so in the source), read-out: UPTAKE NEUROTRANSMETTEUR IN VITRO IC 50 M 5-HT
5-HT, sequence (P31645 whole entry): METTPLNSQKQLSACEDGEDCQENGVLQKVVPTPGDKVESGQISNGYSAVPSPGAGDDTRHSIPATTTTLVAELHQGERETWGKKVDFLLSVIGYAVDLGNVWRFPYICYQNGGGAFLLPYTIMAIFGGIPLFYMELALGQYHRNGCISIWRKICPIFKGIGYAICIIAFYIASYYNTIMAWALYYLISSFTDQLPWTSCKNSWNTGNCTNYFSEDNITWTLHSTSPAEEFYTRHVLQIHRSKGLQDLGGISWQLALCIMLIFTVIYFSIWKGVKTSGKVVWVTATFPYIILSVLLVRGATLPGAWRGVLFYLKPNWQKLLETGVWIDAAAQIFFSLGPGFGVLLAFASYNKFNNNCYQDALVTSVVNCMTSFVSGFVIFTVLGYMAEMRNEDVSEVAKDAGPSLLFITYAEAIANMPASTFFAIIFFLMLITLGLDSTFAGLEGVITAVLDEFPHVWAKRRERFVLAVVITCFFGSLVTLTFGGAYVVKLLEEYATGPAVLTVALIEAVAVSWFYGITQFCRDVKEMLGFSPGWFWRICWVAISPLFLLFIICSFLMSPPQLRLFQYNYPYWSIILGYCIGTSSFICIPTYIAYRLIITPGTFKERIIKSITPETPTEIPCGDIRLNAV

DA = DA (Homo sapiens, UniProt Q01959); assay: Inhibition of neurotransmitter uptake in vitro, dopamine; format: cell-based; conditions: for IC50: read-out: UPTAKE NEUROTRANSMETTEUR IN VITRO IC 50 M DA; for UPTAKE NEUROTRANSMETTEUR IN VITRO IC 50 M DA: DA = Dopamine
DA, sequence (Q01959 whole entry): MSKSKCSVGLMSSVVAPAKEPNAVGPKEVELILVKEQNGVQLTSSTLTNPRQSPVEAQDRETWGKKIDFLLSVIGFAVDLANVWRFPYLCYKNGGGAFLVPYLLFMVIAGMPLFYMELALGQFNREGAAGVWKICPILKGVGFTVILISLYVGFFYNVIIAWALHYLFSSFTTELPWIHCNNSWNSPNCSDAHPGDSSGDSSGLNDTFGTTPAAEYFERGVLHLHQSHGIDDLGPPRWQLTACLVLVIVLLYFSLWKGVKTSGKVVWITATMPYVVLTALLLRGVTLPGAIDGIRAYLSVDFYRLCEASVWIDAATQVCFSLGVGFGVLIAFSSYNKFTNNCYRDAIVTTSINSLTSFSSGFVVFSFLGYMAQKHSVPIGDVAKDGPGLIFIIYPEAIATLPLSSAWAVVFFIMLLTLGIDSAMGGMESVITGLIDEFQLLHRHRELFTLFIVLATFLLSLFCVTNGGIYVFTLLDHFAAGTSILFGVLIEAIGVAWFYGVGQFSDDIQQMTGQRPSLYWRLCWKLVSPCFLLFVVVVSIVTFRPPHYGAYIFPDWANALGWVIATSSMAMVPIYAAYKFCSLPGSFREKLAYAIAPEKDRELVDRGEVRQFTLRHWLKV

RECEPTEURS α2 = assay: Affinity for the α2 receptor in vitro; format: binding; conditions: read-out: AFFINITE RECEPTEURS α2 IN VITRO IC […]; read-out: […] […] α2 IN VITRO IC 50 M
[1] = Cardiovascular activity in the anaesthetised dog; format: in vivo, chien
Excerpt: Les 2-amino-oxazolines selon l'invention se caractérisent par des propriétés pharmacologiques intéressantes, et notamment par des propriétés anti-dépressives, hypertensives et analeptiques vasculaires. Elles agissent sur les récepteurs α₂, soit par un phénomène de bloquage, soit par un effet agoniste. […] Cet effet s'apparente donc à celui de la Yohimbine.
Chez le chien anesthésié, l'injection des produits selon l'invention provoque une hypertension durable, à des doses relativement faibles, allant de 0,05 à 1 mg/kg I.V.

[2] = Motor activity (exploration) in the mouse; format: in vivo, souris
[3] = mouse, doses 0,75 à 20 mg/kg
[4] = in vivo
récepteurs α₂ = conditions: lizard; Carter and Shuster, Br. J. Pharmacol. (1982), 75, 169-176; cited from earlier work

NAd, sequence (P23975 whole entry): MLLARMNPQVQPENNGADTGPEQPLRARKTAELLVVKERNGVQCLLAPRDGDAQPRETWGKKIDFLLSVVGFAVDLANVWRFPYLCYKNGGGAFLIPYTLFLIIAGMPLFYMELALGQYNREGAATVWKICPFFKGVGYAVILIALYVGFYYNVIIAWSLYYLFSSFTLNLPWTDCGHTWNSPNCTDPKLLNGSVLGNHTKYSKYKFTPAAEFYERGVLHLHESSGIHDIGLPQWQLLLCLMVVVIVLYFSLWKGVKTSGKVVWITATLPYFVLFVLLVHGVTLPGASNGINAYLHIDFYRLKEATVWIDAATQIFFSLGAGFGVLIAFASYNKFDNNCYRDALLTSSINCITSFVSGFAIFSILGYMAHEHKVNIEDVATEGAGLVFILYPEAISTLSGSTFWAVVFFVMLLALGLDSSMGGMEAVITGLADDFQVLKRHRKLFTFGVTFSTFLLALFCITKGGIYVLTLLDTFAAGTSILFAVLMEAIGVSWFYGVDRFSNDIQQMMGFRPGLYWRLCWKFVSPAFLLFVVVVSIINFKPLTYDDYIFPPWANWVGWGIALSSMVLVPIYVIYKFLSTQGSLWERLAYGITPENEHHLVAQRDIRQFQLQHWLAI

Row | SMILES | IC50 (5-HT) | IC50 (DA) | IC50 (NAd) | IC50 (RECEPTEURS α2) | also measured
1 | NC1=NC(COc2ccccc2)CO1 (racemic) [ex. 6, 4-phénoxy-méthyl 2-amino-oxazoline] | > 10 µM | > 10 µM | – | – | UPTAKE NEUROTRANSMETTEUR IN VITRO IC 50 M NAd (NAd): nul à 10^-5
2 | NC1=NC(Cc2ccc(Cl)cc2)CO1 (racemic) [ex. 10] | 4 µM | 2.3 µM | 4000 nM | 44 nM | –
3 | NC1=NC(Cc2ccccc2Cl)CO1 (racemic) [ex. 11] | > 10 µM | > 10 µM | 2500 nM | 2.7 nM | –
4 | NC1=NC(CCc2ccccc2)CO1 (racemic) [ex. 13] | – | – | 230 nM | > 100 nM | UPTAKE NEUROTRANSMETTEUR IN VITRO IC 50 M 5-HT (5-HT; 5-HT = 5-hydroxytryptophane (so in the source)): nul à 10^-6; UPTAKE NEUROTRANSMETTEUR IN VITRO IC 50 M DA (DA): nul à 10^-6
5 | NC1=NC(Cc2ccc(O)cc2)CO1 (racemic) [ex. 20] | – | – | – | > 100 nM | –
6 | NC1=NC(Cc2ccccc2)CO1 (single isomer, unassigned) [ex. 12] | > 10 µM | 4 µM | 400 nM | 4 nM | –
7 | NC1=NC(Cc2ccccc2Cl)CO1 (single isomer, unassigned) [ex. 23] | – | – | – | 3.3 nM | –
8 | Clc1cccc(Cl)c1N=C1NCCN1 [CLONIDINE] | – | – | – | 1 nM | activité vasomotrice (vasodilatation ou vasoconstriction primaire) [1]: activité vasoconstrictive d'emblée; exploration [2]: diminuent l'exploration; température centrale [3]: baisse de température; activité diabétogène [4]: activité diabétogène expérimentale; noircissement qui résulte du traitement par le MSH (récepteurs α₂): antagonisé
9 | c1ccc2c(c1)OCC(C1=NCCN1)O2 (centres unmarked) [IDAZOXAN, reference compound] | – | – | – | 29 nM | –
10 | Cc1ccc(N(CC2=NCCN2)c2cccc(O)c2)cc1 [PHENTOLAMINE, reference compound] | – | – | – | 22 nM | –
11 | NC1=NC(COc2ccccc2Cl)CO1 (centres unmarked) [ex. 5, 4-(2-chlorophénoxyméthyl) 2-amino-oxazoline] | 2.8 µM | 7.2 µM | > 10000 nM | 33 nM | –
12 | COc1ccc(OCC2COC(N)=N2)cc1 (centres unmarked) [ex. 7, 4-(4-méthoxyphenoxymethyl) 2-amino-oxazoline] | > 10 µM | – | – | > 100 nM | UPTAKE NEUROTRANSMETTEUR IN VITRO IC 50 M NAd (NAd): nul à 10^-5; UPTAKE NEUROTRANSMETTEUR IN VITRO IC 50 M DA (DA): nul à 10^-5
13 | NC1=NC(COCc2ccccc2)CO1 (centres unmarked) [ex. 8, 4-(benzyloxy-méthyl) 2-amino-oxazoline] | > 10 µM | – | – | > 100 nM | UPTAKE NEUROTRANSMETTEUR IN VITRO IC 50 M NAd (NAd): nul à 10^-5; UPTAKE NEUROTRANSMETTEUR IN VITRO IC 50 M DA (DA): nul à 10^-5
